System: LoVo (CCL-229) cells
Assay: Tumor cell anti-proliferation assay (CTG assay)
Type: cell-based
Settings: LoVo human colorectal cancer cells, 96 h, CellTiter-Glo
Method: Assay 2: Tumor Cell Anti-proliferation Assay (CTG Assay)
Human colorectal cancer cells HT-29 (HTB-38) and LoVo (CCL-229) were selected for the CTG assay, the two cell lines were originally obtained from the American Type Culture Collection (ATCC). FBS and appropriate additives were added into base medium to prepare complete medium, then the cell layer was briefly rinsed with 0.25% (w/v) Trypsin-0.038% (w/v) EDTA solution to remove all traces of serum that contains trypsin inhibitor. After that, appropriate volume of Trypsin-EDTA solution was added to flask and cells under an inverted microscope were observed until cell layer was dispersed. At last, appropriate volume of complete growth medium was added and cells were aspirated by gently pipetting. Numbers were collected and counted with Vi-cell XR and cell density was adjusted, cells were seeded into 96-well opaque-walled clear bottom tissue-culture treated plates in the CO2 incubator for 20-24 hours. All the test compounds were at 10 mM in DMSO. Compounds were then added to the cell media in 3-fold serial dilutions, the final DMSO concentration was 0.5%. Plates were incubated for 96 h at 5% CO2, 37° C. Before the measurement, the appropriate volume of CellTiter-Glo Buffer was transferred into the amber bottle containing CellTiter-Glo substrate to reconstitute the lyophilized enzyme/substrate mixture, mixed gently, thereby forming the CellTiter-Glo Reagent (Promega Cat. No. G7573). The plate and its contents were equilibrated to room temperature for approximately 30 minutes, then 100 μL of CellTiter-Glo Reagent was added to the assay plate, the contents were mixed for 2 minutes on an orbital shaker to induce cell lysis, incubated at room temperature for 10 minutes to stabilize luminescent signal. At last the clear bottom was pasted with white back seal and luminescence was recorded with Enspire. IC50 and GI50 values were calculated with XLFit curve fitting software using 4 Parameter Logistic Model Y=Bottom+(Top−Bottom)/(1+(IC50/X)^HillSlope).

Cc1nc(-c2ccn[nH]2)n2nc(N3CCOC[C@H]3C)cc(-c3ccnn3C)c12 [Example 36, (R)-3-methyl-4-(5-methyl-4-(1-methyl-1H-pyrazol-5-yl)-7-(1H-pyrazol-5-yl)imidazo[1,5-b]pyridazin-2-yl)morpholine]
IC50: 17.8 nM

CCn1nncc1-c1cc(N2CCOC[C@H]2C)nc2c(-c3cc(C)n[nH]3)nsc12 [Example 107, (3R)-4-[7-(1-ethyl-1H-1,2,3-triazol-5-yl)-3-(3-methyl-1H-pyrazol-5-yl)-[1,2]thiazolo[4,5-b]pyridin-5-yl]-3-methylmorpholine]
IC50: 15 nM

C[C@@H]1COCCN1c1cc(C2(S(C)(=O)=O)CC2)c2snc(-c3ccn[nH]3)c2n1 [Example 49, (R)-3-methyl-4-(7-(1-(methylsulfonyl)cyclopropyl)-3-(1H-pyrazol-5-yl)isothiazolo[4,5-b]pyridin-5-yl)morpholine]
IC50: 16.1 nM

Cc1cc(-c2nsc3c(C4(S(C)(=N)=O)CC4)cc(N4CCOC[C@H]4C)nc23)[nH]n1 (stereo partly drawn) [Example 94, imino(methyl)(1-(3-(3-methyl-1H-pyrazol-5-yl)-5-((R)-3-methylmorpholino)isothiazolo[4,5-b]pyridin-7-yl)cyclopropyl)-16-sulfanone]
IC50: 12 nM

C[C@@H]1COCCN1c1cc(-c2cnnn2C)c2snc(-c3ccn[nH]3)c2n1 [Example 69, (R)-3-methyl-4-(7-(1-methyl-1H-1,2,3-triazol-5-yl)-3-(1H-pyrazol-5-yl)isothiazolo[4,5-b]pyridin-5-yl)morpholine]
IC50: 15 nM

Cc1cc(-c2nsc3c(-c4cnnn4C)cc(N4CCOC[C@H]4C)nc23)[nH]n1 [Example 68, (R)-3-methyl-4-(7-(1-methyl-1H-1,2,3-triazol-5-yl)-3-(3-methyl-1H-pyrazol-5-yl)isothiazolo[4,5-b]pyridin-5-yl)morpholine]
IC50: 16 nM

Cc1cc(-c2nc(C)c3c(-c4ccnn4C)cc(N4CCOC[C@H]4C)nn23)[nH]n1 [Example 47, (R)-3-methyl-4-(5-methyl-4-(1-methyl-1H-pyrazol-5-yl)-7-(3-methyl-1H-pyrazol-5-yl)imidazo[1,5-b]pyridazin-2-yl)morpholine]
IC50: 17.1 nM

Cc1cc(-c2nsc3c(C(C)(C)C#N)cc(N4CCOC[C@H]4C)nc23)[nH]n1 [Example 54, (R)-2-methyl-2-(3-(3-methyl-1H-pyrazol-5-yl)-5-(3-methylmorpholino)isothiazolo[4,5-b]pyridin-7-yl)propanenitrile]
IC50: 66.7 nM

C[C@@H]1COCCN1c1cc(C(C)(C)S(C)(=O)=O)c2cnc(-c3ccn[nH]3)n2n1 [Example 41, (3R)-4-[4-(2-methanesulfonylpropan-2-yl)-7-(1H-pyrazol-5-yl)imidazo[1,5-b]pyridazin-2-yl]-3-methylmorpholine]
IC50: 86.6 nM

Cc1cc(-c2nsc3c(-c4ccccc4S(C)(=O)=O)cc(N4CCOC[C@H]4C)nc23)[nH]n1 [Example 95, (3R)-4-[7-(2-methanesulfonylphenyl)-3-(3-methyl-1H-pyrazol-5-yl)-[1,2]thiazolo[4,5-b]pyridin-5-yl]-3-methylmorpholine]
IC50: 36 nM

Cc1cc(-c2nsc3c(C4(O)CCCCC4)cc(N4CCOC[C@H]4C)nc23)[nH]n1 [Example 86, (R)-1-(3-(3-methyl-1H-pyrazol-5-yl)-5-(3-methylmorpholino)isothiazolo[4,5-b]pyridin-7-yl)cyclohexan-1-ol]
IC50: 9 nM

COC(=O)C1(c2cc(N3CCOC[C@H]3C)nc3c(-c4ccn[nH]4)nsc23)CCCC1 [Example 92]
IC50: 94 nM

Cc1nnn(C)c1-c1cc(N2CCOC[C@H]2C)nn2c(-c3ccn[nH]3)nc(C)c12 [Example 45, (3R)-4-[4-(dimethyl-1H-1,2,3-triazol-5-yl)-5-methyl-7-(1H-pyrazol-5-yl)imidazo[1,5-b]pyridazin-2-yl]-3-methylmorpholine]
IC50: 81.7 nM

Cc1cc(-c2nsc3c(C4(O)CCCC4)cc(N4CCOC[C@H]4C)nc23)[nH]n1 [Example 106, (R)-1-(3-(3-methyl-1H-pyrazol-5-yl)-5-(3-methylmorpholino)isothiazolo[4,5-b]pyridin-7-yl)cyclopentan-1-ol]
IC50: 46 nM

Cc1cc(-c2nsc3c(C4(C(N)=O)CCCCC4)cc(N4CCOC[C@H]4C)nc23)[nH]n1 [Example 88, (R)-1-(3-(3-methyl-1H-pyrazol-5-yl)-5-(3-methylmorpholino)isothiazolo[4,5-b]pyridin-7-yl)cyclohexane-1-carboxamide]
IC50: 1 nM

C[C@@H]1COCCN1c1cc(C2(C#N)CC2)c2cnc(-c3ccn[nH]3)n2n1 [Example 44, (R)-1-(2-(3-methylmorpholino)-7-(1H-pyrazol-5-yl)imidazo[1,5-b]pyridazin-4-yl)cyclopropane-1-carbonitrile]
IC50: 43.9 nM

Cc1cc(-c2nsc3c(C(C)(C)O)cc(N4CCOC[C@H]4C)nc23)[nH]n1 [Example 67, (R)-2-(3-(3-methyl-1H-pyrazol-5-yl)-5-(3-methylmorpholino)isothiazolo[4,5-b]pyridin-7-yl)propan-2-ol]
IC50: 5 nM

Cc1cc(-c2nsc3c(-c4cccnc4C(F)(F)F)cc(N4CCOC[C@H]4C)nc23)[nH]n1 [Example 96, (3R)-3-methyl-4-[3-(3-methyl-1H-pyrazol-5-yl)-7-[2-(trifluoromethyl)pyridin-3-yl]-[1,2]thiazolo[4,5-b]pyridin-5-yl]morpholine]
IC50: 32.7 nM

Cc1cc(-c2nsc3c(-c4c(C)cnn4C)cc(N4CCOC[C@H]4C)nc23)[nH]n1 [Example 71, (R)-4-(7-(1,4-dimethyl-1H-pyrazol-5-yl)-3-(3-methyl-1H-pyrazol-5-yl)isothiazolo[4,5-b]pyridin-5-yl)-3-methylmorpholine]
IC50: 23 nM

Cc1nc(-c2ccn[nH]2)n2nc(N3CC4CCC(C3)O4)cc(-c3ccnn3C)c12 [Example 65, 3-[5-methyl-4-(1-methyl-1H-pyrazol-5-yl)-7-(1H-pyrazol-5-yl)imidazo [1,5-b]pyridazin-2-yl]-8-oxa-3-azabicyclo[3.2.1]octane]
IC50: 55.2 nM

Cc1cc(-c2nsc3c(Cl)cc(N4CCOC[C@H]4C)nc23)[nH]n1 [Example 104, (R)-4-(7-chloro-3-(3-methyl-1H-pyrazol-5-yl)isothiazolo[4,5-b]pyridin-5-yl)-3-methylmorpholine]
IC50: 154 nM

C[C@@H]1COCCN1c1cc(C(C)(C)CO)c2snc(-c3ccn[nH]3)c2n1 [Example 100, (R)-2-methyl-2-(5-(3-methylmorpholino)-3-(1H-pyrazol-5-yl)isothiazolo[4,5-b]pyridin-7-yl)propan-1-ol]
IC50: 16 nM

Cc1cc(-c2nc(C)c3c(-c4c(C)nnn4C)cc(N4CCOC[C@H]4C)nn23)[nH]n1 [Example 46, (3R)-4-[4-(dimethyl-1H-1,2,3-triazol-5-yl)-5-methyl-7-(3-methyl-1H-pyrazol-5-yl)imidazo[1,5-b]pyridazin-2-yl]-3-methylmorpholine]
IC50: 51.2 nM

Cc1cc(-c2nsc3c(C(C)(C)CO)cc(N4CCOC[C@H]4C)nc23)[nH]n1 [Example 97, (R)-2-methyl-2-(3-(3-methyl-1H-pyrazol-5-yl)-5-(3-methylmorpholino)isothiazolo[4,5-b]pyridin-7-yl)propan-1-ol]
IC50: 10 nM

Cc1cc(-c2nc(C)c3c(-c4ccnn4C)cc(N4CC5CCC(C4)O5)nn23)[nH]n1 [Example 66, 3-[5-methyl-4-(1-methyl-1H-pyrazol-5-yl)-7-(3-methyl-1H-pyrazol-5-yl)imidazo[1,5-b]pyridazin-2-yl]-8-oxa-3-azabicyclo[3.2.1]octane]
IC50: 69 nM

C[C@@H]1COCCN1c1cc(C2(C#N)CCCC2)c2cnc(-c3ccn[nH]3)n2n1 [Example 59, 1-{2-[(3R)-3-methylmorpholin-4-yl]-7-(1H-pyrazol-5-yl)imidazo[1,5-b]pyridazin-4-yl}cyclopentane-1-carbonitrile]
IC50: 28.1 nM

C[C@@H]1COCCN1c1cc(-c2ccnn2C)c2c(Cl)nc(-c3ccn[nH]3)n2n1 [Example 61, (3R)-4-[5-chloro-4-(1-methyl-1H-pyrazol-5-yl)-7-(1H-pyrazol-5-yl)imidazo[1,5-b]pyridazin-2-yl]-3-methylmorpholine]
IC50: 26.5 nM

Cc1cnn(C)c1-c1cc(N2CCOC[C@H]2C)nc2c(-c3ccn[nH]3)nsc12 [Example 70, (R)-4-(7-(1,4-dimethyl-1H-pyrazol-5-yl)-3-(1H-pyrazol-5-yl)isothiazolo[4,5-b]pyridin-5-yl)-3-methylmorpholine]
IC50: 18 nM

Cc1cc(-c2ncc3c(-c4c(C)nnn4C)cc(N4CCOC[C@H]4C)nn23)[nH]n1 [Example 35, (3R)-4-(4-(1,4-dimethyl-1H-1,2,3-triazol-5-yl)-7-(3-methyl-1H-pyrazol-5-yl)imidazo[1,5-b]pyridazin-2-yl)-3-methylmorpholine]
IC50: 129 nM

Cc1cc(-c2nsc3c(-c4ccnn4C)cc(N4CCOC[C@H]4C)nc23)[nH]n1 [Example 37, (R)-3-methyl-4-(7-(1-methyl-1H-pyrazol-5-yl)-3-(3-methyl-1H-pyrazol-5-yl)isothiazolo[4,5-b]pyridin-5-yl)morpholine]
IC50: 36.6 nM

From patent US20230295166A1, “ATR INHIBITORS AND USES THEREOF” (ANTENGENE DISCOVERY LIMITED, priority 2020, published 2023)
